Test results taken from US20080214622A1, “Substituted Triazole Derivatives As Oxytocin Antagonists” (priority 2005, published 2008).

Target: T1, Oxytocin Receptor (Homo sapiens, UniProt P30559)
T1 sequence (P30559 1-389): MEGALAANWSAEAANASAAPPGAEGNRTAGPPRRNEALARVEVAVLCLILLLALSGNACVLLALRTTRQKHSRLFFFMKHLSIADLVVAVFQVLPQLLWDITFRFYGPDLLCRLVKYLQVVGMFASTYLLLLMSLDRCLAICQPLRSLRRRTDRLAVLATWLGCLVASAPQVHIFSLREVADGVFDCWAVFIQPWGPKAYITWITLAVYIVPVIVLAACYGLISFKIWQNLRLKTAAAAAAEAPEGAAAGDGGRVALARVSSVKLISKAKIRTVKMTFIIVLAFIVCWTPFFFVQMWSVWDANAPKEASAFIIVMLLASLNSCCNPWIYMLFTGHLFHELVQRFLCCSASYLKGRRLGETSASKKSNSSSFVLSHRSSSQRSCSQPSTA
Assay: Oxytocin Receptor Beta-lactamase assay (as detailed in WO 2004/020414)
Assay type: cell-based
Settings: read-out: Ki value (Oxytocin antagonist activity)
From the text: A suitable assay for determining the Oxytocin antagonist activity of a compound is detailed in International Patent Application WO 2004/020414.

Ki | Compound
11.2 nM | COc1ccc(-n2c(C)nnc2-c2ccc(-c3ccccc3OC)cc2)c(OCCN2CCOCC2)n1 [Example 2, 4-[2-({6-Methoxy-3-[3-(2′-methoxybiphenyl-4-yl)-5-methyl-4H-1,2,4-triazol-4-yl]pyridin-2-yl}oxy)ethyl]morpholine]
14.6 nM | COc1ccc(-n2c(C)nnc2-c2ccc(-c3ccccc3OC)cc2OC)cc1 [Example 10, 3-(2′,3-Dimethoxybiphenyl-4-yl)-4-(4-methoxyphenyl)-5-methyl-4H-1,2,4-triazole]
11.7 nM | COc1ccc(-n2c(Cn3nccn3)nnc2-c2ccc(-c3ccccc3OC)cc2)cc1 [Example 25]
13.8 nM | COCCOc1nc(OC)ccc1-n1c(C)nnc1-c1ccc(-c2ccccc2OC)cc1 [Example 32, 6-Methoxy-3-[3-(2′-methoxybiphenyl-4-yl)-5-methyl-4H-1,2,4-triazol-4-yl]-2-(2-methoxyethoxy)pyridine]
